The values that follow come from patent publication US9580390B2, “Indazole compounds as kinase inhibitors and method of treating cancer with same” (University Health Network, priority 2011, dated 2017).

The assay concerns colon cancer cells (HCT116). Put plainly: Cancer cell line growth inhibition (SRB assay). Type of assay: cell-based. Particulars: Homo sapiens, HCT-116; HCT116 colon cancer cells, SRB assay; read-out: Cancer Cell Line GI50 Range HCT116. (In general: In SRB staining, fixed cells bind dye roughly in proportion to their protein.)
Broadly, the GI50 is the concentration giving 50% growth inhibition. As to `CN1CCC(Oc2ccc(-c3n[nH]c4ccc(NC(=O)Nc5c(Cl)cccc5Cl)cc34)cc2)CC1` [Example A76, 1-(2,6-dichlorophenyl)-3-(3-(4-((1-methylpiperidin-4-yl)oxy)phenyl)-1H-indazol-5-yl)urea], the GI50 is under 0.1 µM.
The result for `COC(C(=O)Nc1ccc2[nH]nc(-c3ccc(OC4CCN(C)CC4)cc3)c2c1)c1ccsc1` (stereo not drawn) [Example A37, 2-methoxy-N-(3-(4-((1-methylpiperidin-4-yl)oxy)phenyl)-1H-indazol-5-yl)-2-(thiophen-3-yl)acetamide] reads under 0.1 µM; that for `O=C(Nc1ccc2[nH]nc(-c3ccc(CN4CCOCC4)cc3)c2c1)C(c1ccsc1)N1CCCC1` (stereo not drawn) [Example A3, N-(3-(4-(morpholinomethyl)phenyl)-1H-indazol-5-yl)-2-(pyrrolidin-1-yl)-2-(thiophen-3-yl)acetamide], 0.1 to 0.5 µM.
The result for `CC[C@@H](NC(=O)c1ccc2[nH]nc(-c3ccc(N4CCOCC4)cc3)c2c1)c1cccs1` [Example A58, (R)-3-(4-morpholinophenyl)-N-(1-(thiophen-2-yl)propyl)-1H-indazole-5-carboxamide] reads 0.1 to 0.5 µM; that for `CN1CCN(c2ccc(-c3n[nH]c4ccc(NC(=O)C(c5ccsc5)N5CCCC5)cc34)cc2)CC1` (stereo not drawn) [Example A2, N-(3-(4-(4-methylpiperazin-1-yl)phenyl)-1H-indazol-5-yl)-2-(pyrrolidin-1-yl)-2-(thiophen-3-yl)acetamide], under 0.1 µM; that for `CN1CCC(Oc2ccc(-c3n[nH]c4ccc(C(=O)N[C@@H]5CCCc6ccccc65)cc34)cc2)CC1` [Example A26, (R)-3-(4-((1-methylpiperidin-4-yl)oxy)phenyl)-N-(1,2,3,4-tetrahydronaphthalen-1-yl)-1H-indazole-5-carboxamide], 0.1 to 0.5 µM.
The result for `COc1cc(-c2n[nH]c3ccc(C(=O)NC(c4ccccc4)C4CC4)cc23)ccc1OC1CCN(C)CC1` (stereo not drawn) [Example A19, N-(cyclopropyl(phenyl)methyl)-3-(3-methoxy-4-((1-methylpiperidin-4-yl)oxy)phenyl)-1H-indazole-5-carboxamide] reads 0.1 to 0.5 µM; that for `O=C(Nc1ccc2[nH]nc(-c3ccc(N4CCOCC4)cc3)c2c1)C1CCCc2ccccc21` (stereo not drawn) [Example A22, N-(3-(4-morpholinophenyl)-1H-indazol-5-yl)-1,2,3,4-tetrahydronaphthalene-1-carboxamide], 0.1 to 0.5 µM.
Turning to `O=C(Nc1ccc2[nH]nc(-c3ccc(CCN4CCOCC4)cc3)c2c1)C(c1ccsc1)N1CCCC1` (stereo not drawn) [Example A6, N-(3-(4-(2-morpholinoethyl)phenyl)-1H-indazol-5-yl)-2-(pyrrolidin-1-yl)-2-(thiophen-3-yl)acetamide], the GI50 was in the range of 0.1 to 0.5 µM.
With `C[C@H](NC(=O)c1ccc2[nH]nc(-c3ccc(N4CCOCC4)cc3)c2c1)C1CCCCC1` [Example A40, (S)-N-(1-cyclohexylethyl)-3-(4-morpholinophenyl)-1H-indazole-5-carboxamide], the 50% growth inhibitory concentration (GI50) is 0.1 to 0.5 µM.
The result for `CN1CCC(Oc2ccc(-c3n[nH]c4ccc(NC(=O)N5CCCc6ccccc65)cc34)cc2)CC1` [Example A73, N-(3-(4-((1-methylpiperidin-4-yl)oxy)phenyl)-1H-indazol-5-yl)-3,4-dihydroquinoline-1(2H)-carboxamide] reads over 0.5 µM; that for `COc1cc(-c2n[nH]c3ccc(C(=O)NC(c4ccccc4)C4CC4)cc23)ccc1OC1CCNCC1` (stereo not drawn) [Example A13, N-(cyclopropyl(phenyl)methyl)-3-(3-methoxy-4-(piperidin-4-yloxy)phenyl)-1H-indazole-5-carboxamide], 0.1 to 0.5 µM; that for `CN1CCC(Oc2ccc(-c3n[nH]c4ccc(NC(=O)C(c5ccsc5)N5CCCCC5)cc34)cc2)CC1` (stereo not drawn) [Example A31, N-(3-(4-((1-methylpiperidin-4-yl)oxy)phenyl)-1H-indazol-5-yl)-2-(piperidin-1-yl)-2-(thiophen-3-yl)acetamide], under 0.1 µM.
Take `CC[C@@H](NC(=O)c1ccc2[nH]nc(-c3ccc(OC4CCN(C)CC4)cc3)c2c1)c1cccs1` [Example A63, (R)-3-(4-((1-methylpiperidin-4-yl)oxy)phenyl)-N-(1-(thiophen-2-yl)propyl)-1H-indazole-5-carboxamide]: the concentration for 50% growth inhibition (GI50) is under 0.1 µM.
The result for `CN(C)CCOc1ccc(-c2n[nH]c3ccc(NC(=O)C(c4ccsc4)N4CCCC4)cc23)cc1` (stereo not drawn) [Example A5, N-(3-(4-(2-(dimethylamino)ethoxy)phenyl)-1H-indazol-5-yl)-2-(pyrrolidin-1-yl)-2-(thiophen-3-yl)acetamide] reads under 0.1 µM; that for `CN(C)CCCOc1ccc(-c2n[nH]c3ccc(NC(=O)C(c4ccsc4)N4CCCC4)cc23)cc1` (stereo not drawn) [Example A43, N-(3-(4-(3-(dimethylamino)propoxy)phenyl)-1H-indazol-5-yl)-2-(pyrrolidin-1-yl)-2-(thiophen-3-yl)acetamide], under 0.1 µM; that for `COc1cc(-c2n[nH]c3ccc(NC(=O)C(c4ccsc4)N4CCCC4)cc23)ccc1OC1CCNCC1` (stereo not drawn) [Example A8, N-(3-(3-methoxy-4-(piperidin-4-yloxy)phenyl)-1H-indazol-5-yl)-2-(pyrrolidin-1-yl)-2-(thiophen-3-yl)acetamide], under 0.1 µM.
The result for `C[C@@H](NC(=O)c1ccc2[nH]nc(-c3ccc(N4CCOCC4)cc3)c2c1)c1cccs1` [Example A53, (R)-3-(4-morpholinophenyl)-N-(1-(thiophen-2-yl)ethyl)-1H-indazole-5-carboxamide] reads 0.1 to 0.5 µM; that for `O=C(Nc1ccc2[nH]nc(-c3ccc(NC4CCCCC4)cc3)c2c1)C(c1ccsc1)N1CCCC1` (stereo not drawn) [Example A68, N-(3-(4-(cyclohexylamino)phenyl)-1H-indazol-5-yl)-2-(pyrrolidin-1-yl)-2-(thiophen-3-yl)acetamide], over 0.5 µM.
The result for `O=C(Nc1ccc2[nH]nc(-c3ccc(OCCN4CCCC4)cc3)c2c1)C(c1ccsc1)N1CCCC1` (stereo not drawn) [Example A44, 2-(pyrrolidin-1-yl)-N-(3-(4-(2-(pyrrolidin-1-yl)ethoxy)phenyl)-1H-indazol-5-yl)-2-(thiophen-3-yl)acetamideamide] reads under 0.1 µM.
In the case of `O=C(Nc1ccc2[nH]nc(-c3ccc(OC4CCNCC4)cc3)c2c1)C(c1ccsc1)N1CCCC1` (stereo not drawn) [Example A28, N-(3-(4-(piperidin-4-yloxy)phenyl)-1H-indazol-5-yl)-2-(pyrrolidin-1-yl)-2-(thiophen-3-yl)acetamide], the concentration for 50% growth inhibition (GI50) is under 0.1 µM.
The result for `CN1CCc2cc(-c3n[nH]c4ccc(NC(=O)C(c5ccsc5)N5CCCC5)cc34)ccc21` (stereo not drawn) [Example A16, N-(3-(1-methylindolin-5-yl)-1H-indazol-5-yl)-2-(pyrrolidin-1-yl)-2-(thiophen-3-yl)acetamide] reads 0.1 to 0.5 µM; that for `Cc1cc(C)c(NC(=O)Nc2ccc3[nH]nc(-c4ccc(OC5CCN(C)CC5)cc4)c3c2)c(Cl)c1` [Example A77, 1-(2-chloro-4,6-dimethylphenyl)-3-(3-(4-((1-methylpiperidin-4-yl)oxy)phenyl)-1H-indazol-5-yl)urea], 0.1 to 0.5 µM; that for `CN1CCC(Oc2ccc(-c3n[nH]c4ccc(NC(=O)C(c5ccsc5)C5CCCC5)cc34)cc2)CC1` (stereo not drawn) [Example A36, 2-cyclopentyl-N-(3-(4-((1-methylpiperidin-4-yl)oxy)phenyl)-1H-indazol-5-yl)-2-(thiophen-3-yl)acetamide], under 0.1 µM.
